Experiments:
Assay type in all cases: functional, organism-based
Plasmodium falciparum [1] = assay: Antimalarial activity against chloroquine-resistant Plasmodium falciparum FcM29 infected in human red blood cells after 48 hrs by [3H]-hypoxanthine incorporation assay
Plasmodium falciparum [2] = assay: Antimalarial activity against chloroquine-sensitive Plasmodium falciparum Nigerian infected in human red blood cells after 48 hrs by [3H]-hypoxanthine incorporation assay
Plasmodium falciparum [3] = assay: Antimalarial activity against chloroquine-resistant Plasmodium falciparum FcB1 infected in human red blood cells after 48 hrs by [3H]-hypoxanthine incorporation assay
Plasmodium falciparum [4] = assay: Antimalarial activity against chloroquine-resistant Plasmodium falciparum RFCR-3 infected in human type A+ erythrocytes after 48 hrs by [3H]-hypoxanthine incorporation assay
Plasmodium falciparum [5] = assay: Antimalarial activity against chloroquine-resistant Plasmodium falciparum K1 infected in human type A+ erythrocytes after 48 hrs by [3H]-hypoxanthine incorporation assay
Plasmodium falciparum [6] = assay: Antimalarial activity against chloroquine-resistant Plasmodium falciparum W2MEF infected in human type A+ erythrocytes after 48 hrs by [3H]-hypoxanthine incorporation assay
Plasmodium falciparum [7] = assay: Antimalarial activity against chloroquine-sensitive Plasmodium falciparum RF MEF3 infected in human type A+ erythrocytes after 48 hrs by [3H]-hypoxanthine incorporation assay
Plasmodium falciparum [8] = assay: Antimalarial activity against chloroquine-sensitive Plasmodium falciparum NF54 infected in human type A+ erythrocytes after 48 hrs by [3H]-hypoxanthine incorporation assay
Plasmodium falciparum [9] = assay: Antimalarial activity against chloroquine-resistant Plasmodium falciparum T9/94 infected in human type A+ erythrocytes after 48 hrs by [3H]-hypoxanthine incorporation assay
Plasmodium falciparum [10] = assay: Antimalarial activity against chloroquine-sensitive Plasmodium falciparum FCH-5-C2 infected in human type A+ erythrocytes after 48 hrs by [3H]-hypoxanthine incorporation assay
Plasmodium falciparum [11] = assay: Antimalarial activity against chloroquine-resistant Plasmodium falciparum 7G8 infected in human type A+ erythrocytes after 48 hrs by [3H]-hypoxanthine incorporation assay
Plasmodium falciparum [12] = assay: Antimalarial activity against chloroquine-resistant Plasmodium falciparum W2 infected in human type A+ erythrocytes after 48 hrs by [3H]-hypoxanthine incorporation assay
Plasmodium falciparum [13] = assay: Antimalarial activity against chloroquine-sensitive Plasmodium falciparum HB3 infected in human type A+ erythrocytes after 48 hrs by [3H]-hypoxanthine incorporation assay
Plasmodium falciparum [14] = assay: Antimalarial activity against chloroquine-resistant Plasmodium falciparum ItG2F6 infected in human type A+ erythrocytes after 48 hrs by [3H]-hypoxanthine incorporation assay
Plasmodium falciparum [15] = assay: Antimalarial activity against chloroquine-resistant Plasmodium falciparum INDO infected in human type A+ erythrocytes after 48 hrs by [3H]-hypoxanthine incorporation assay
Plasmodium falciparum [16] = assay: Antimalarial activity against chloroquine-sensitive Plasmodium falciparum Ro73 infected in human type A+ erythrocytes after 48 hrs by [3H]-hypoxanthine incorporation assay

With `Fc1ccc(C(/C=C/C=C(\c2ccc(F)cc2)N2CCN(c3ccnc4cc(Cl)ccc34)CC2)=[N+]2CCN(c3ccnc4cc(Cl)ccc34)CC2)cc1` as the molecule, how does the IC50 (Plasmodium falciparum [1]) read?
Its IC50 is 468 nM.

And the IC50 (Plasmodium falciparum [2])?
The IC50 was 350 nM.

And the IC50 (Plasmodium falciparum [3])?
Its IC50 is 444 nM.

For `Clc1ccc2c(N[C@@H]3CCCC[C@H]3Nc3ccnc4cc(Cl)ccc34)ccnc2c1`, which IC50 (Plasmodium falciparum [4]) is on record?
Its IC50 is 4 to 13 nM.

What about the IC50 (Plasmodium falciparum [5]) of the same molecule?
Its IC50 is 13 nM.

And the IC50 (Plasmodium falciparum [6])?
The IC50 was 4 to 13 nM.

And the IC50 (Plasmodium falciparum [7])?
The IC50 was 4 to 13 nM.

What about the IC50 (Plasmodium falciparum [8]) of the same molecule?
Its IC50 is 6 nM.

And the IC50 (Plasmodium falciparum [9])?
The IC50 was 4 to 13 nM.

What about the IC50 (Plasmodium falciparum [10]) of the same molecule?
The IC50 was 4 to 13 nM.

And the IC50 (Plasmodium falciparum [11])?
Its IC50 is 4 to 13 nM.

What about the IC50 (Plasmodium falciparum [12]) of the same molecule?
Its IC50 is 10 nM.

And the IC50 (Plasmodium falciparum [13])?
The IC50 was 4 nM.

And the IC50 (Plasmodium falciparum [14])?
Its IC50 is 4 to 13 nM.

And the IC50 (Plasmodium falciparum [15])?
Its IC50 is 4 to 13 nM.

And the IC50 (Plasmodium falciparum [16])?
Its IC50 is 4 to 13 nM.

From ChEMBL document CHEMBL4190314, “Quinoline hybrids and their antiplasmodial and antimalarial activities” (Eur J Med Chem, 2017)
